Experiments:
[1] = Fasting glucose test of treated ZDF rats; assay type: in vivo, rat; settings: obese ZDF rats, 10 mg/kg oral gavage five times a week for 20 days; untreated group 242.25 (SD 14.58); treated SD 14.29
Procedure: (§1) Whole blood samples were obtained from a group of four obese ZDF rats treated with an anti-diabetic drug, Rosiglitazone (10 mg/kg), administered by oral gavage five times a week for 20 days and a group of four untreated obese ZDF rats induced with a saline solution administered by oral gavage five times a week for 20 days.
The values of the average number of lipid bodies and average lipid body area correspond to results of a fasting glucose test of the untreated and treated subjects.

[2] = test system: lipid bodies in neutrophil cells of ZDF rats; assay: Lipid bodies per neutrophil cell of leukocyte samples (SEM) from obese ZDF rats treated with anti-diabetic drug; assay type: in vivo, rat; settings: 10 mg/kg oral gavage five times a week for 20 days
Procedure: as §1
A whole blood sample was collected in tubes including a solution of heparin. One hour after drawing the whole blood sample from each rat, approximately 75 microliters of whole blood was mixed with 600 microliters of ddH2O and incubated at a temperature of approximately 25° C. for approximately 30 seconds. Then 75 microliters of 10×PBS was added.
Following incubation, the sample was centrifuged at a speed of approximately 1200 rpm for approximately five minutes. Thereafter, resulting supernatant was removed from the leukocyte sample. Approximately 400 microliters of PBS including 0.89 mM calcium and 0.49 mM magnesium was added to the leukocyte sample. The sample was centrifuged again at a speed of approximately 1200 rpm for approximately five minutes. Thereafter, resulting supernatant was removed from the leukocyte sample. Approximately 400 microliters of PBS including 0.89 mM calcium and 0.49 mM magnesium was added to the leukocyte sample. […]

CN(CCOc1ccc(CC2SC(=O)NC2=O)cc1)c1ccccn1 (stereo not drawn) [Rosiglitazone]
fasting glucose [1]: 110.13 mg/dL
average lipid body area per neutrophil cell of a leukocyte sample ([2]; untreated group 1.04 (SD 0.1), treated SD 0.06): approximately 0.65 μm^2
average number of lipid bodies per neutrophil cell of a leukocyte sample ([2]; untreated group 7.03 (SD 0.83), treated SD 0.24): approximately 4.09
